Reference: US6551585B1, “Use of tumor necrosis factor as an adjuvant” (Genentech, Inc., priority 1987, dated 2003)
Marks after values point to notes of the source that are not given here.

How the values were obtained:
[1] = tested on: bovine serum albumin (BSA); assay: Serum antibody (IgG) against BSA by Elisa after BSA immunization; type: in vivo, C3H/HeN mice; conditions: for Production of antibody (IgG) against BSA: BSA 500 μg i.p. day 0 and second injection 100 μg, adjuvant at various doses, bled three days later, Elisa
Description: C3H/HeN mice were given an i.p. injection of bovine serum albumin using a suboptimal vaccine dose (500 μg/animal), which was administered by i.p. injection on day 0. Various doses of TNF-α, as an adjuvant, were administered 48 hours following a second injection of BSA at 100 μg/animal. The mice were bled three days later and the serum antibody levels as IgG were determined using routine Elisa techniques. The i.v. injection of maleic divinyl ether with an average molecular weight of 20,000 daltons was used as a positive control.

[2] = tested on: 2237 tumor cells (syngeneic fibrosarcoma); assay: Immunization with radiation killed 2237 tumor cells plus adjuvant, then footpad challenge with live 2237 cells; tumor volume by calipers; type: in vivo, C3H/HeN mice
Source text: C3H/HeN mice were immunized with 1×10^5 radiation killed 2237 tumor cells. The 2237 cell line is a moderately antigenic syngeneic fibrosarcoma obtained from s.c. growing tumors by collagenase dissociation. The donor tumor cells for use in tumor vaccine were irradiated with 10,000 R of gamma irradiation. Irradiation ultimately kills the cells but they are not immediately killed, indeed the cells may be able to undergo one or two additional divisions before a sufficient accumulation of chromosomal breaks or other abnormalities is obtained to result in a lethal event. Thus, irradiation results in a metabolically viable but noncontinuously proliferating cell. The cells were admixed with HBSS alone (serving as a non-adjuvant killed cell control vaccine), or with HBSS containing various doses of homogeneous recombinant Val-terminal human TNF-α alone or TNF-α plus IFN-γ. The mixture was injected intradermally into the posterior ventral region at five sites. Controls also included TNF without tumor cells, injections of HBSS alone (without killed 2237 cells), and FK565, a dimuramyl dipeptide derivative representing a known adjuvant as a positive control. Primary immunization with 2237 cells and TNF-α occurred on day 1; TNF-α was administered intraperitoneally alone on days 2 and 3. Secondary intradermal immunization occurred on day 11 with the same number of killed cells. When IFN-γ was used with TNF-α, IFN-γ administrations accompanied the TNF-α administration and further, IFN-γ, TNF-α or IFN-γ plus TNF-α were administered intraperitoneally on days 12 and 13. Five days after the second immunization the animals' footpads were injected with live 2237 cells. 48, 74 and 81 days later the tumors that had developed were measured by calipers in two dimensions. Numerous control animals had died by the last measurement day. […] Tumor volume was determined using the formula for a prolated sphere using the two dimensions previously measured. The formula is tumor volume (cm^3) equals ½ A×B^2; where A equals the larger tumor diameter and B equals the smaller tumor diameter.

cytotoxic T cells = assay: Development of cytotoxic T cells in 2237-cell immunized mice; type: in vivo
2237 cells = assay: Direct cytotoxic effect on 2237 cells; type: cell-based
Source text: This is not especially relevant in the context of the foregoing experiments because the tumor cells were not injected into the animals until 2 days after they had last been exposed to cytokines.

[3] = 5 × 10^4 units per animal with killed 2237 cell vaccine
[4] = 500 μg per animal with killed 2237 cell vaccine
[5] = 0.1 μg per animal with killed 2237 cell vaccine
[6] = 1 μg per animal with killed 2237 cell vaccine
[7] = 5 μg per animal with killed 2237 cell vaccine

With “maleic divinyl ether [MVE-2, reference compound]” the “Production of antibody (IgG) against BSA” value [1] was “in a dose-dependent manner augmented”.

In the case of “IFN-γ: IFN-γ (γ-interferon) lymphokine given with or without TNF-α”, the “Tumor Volume Day 48” value [2, 3] is reported as 0 cm^3, the “Tumor Volume Day 74” value [2, 3] is reported as 0 cm^3 and the “Tumor Volume Day 81” value [2, 3] is reported as 0 cm^3.

For `CCCCCCC(=O)N[C@H](CCC(=O)N[C@@H](CCC[C@@H](N)C(=O)O)C(=O)N[C@H](C)C(=O)O)C(=O)O` [FK565, reference compound], the “Tumor Volume Day 48” value [2, 4] was 0 cm^3, the “Tumor Volume Day 74” value [2, 4] was 0 cm^3 and the “Tumor Volume Day 81” value [2, 4] was 0 cm^3.

TNF-α was tested, and the “Tumor Volume Day 48” value [2, 5] was 0 cm^3, the “Tumor Volume Day 74” value [2, 5] was 0 cm^3 and the “Tumor Volume Day 81” value [2, 5] was 0 cm^3. For the same molecule, the “Fate of the tumor that had developed in one animal” value ([2]; 1 μg per animal group, footnote to Day 48 value) was “*The tumor that had developed in one animal in this group regressed before the end of the study”, the “Tumor Volume Day 48” value [2, 6] was 0.157* cm^3 and the “Tumor Volume Day 74” value [2, 6] was 0 cm^3. The “Tumor Volume Day 81” value [2, 6] was 0 cm^3, the “Tumor Volume Day 48” value [2, 7] was 0 cm^3 and the “Tumor Volume Day 74” value [2, 7] was 0 cm^3. The “Tumor Volume Day 81” value [2, 7] was 0 cm^3, the “Stimulation of the development of cytotoxic T cells” value (cytotoxic T cells) was “able to stimulate the development of cytotoxic T cells” and the “Direct cytotoxic effect on 2237 cells” value (2237 cells) was “Neither TNF-α nor IFN-γ have any significant direct cytotoxic effect”. For the same molecule, the “Production of antibody (IgG) against BSA” value [1] was “in a dose-dependent manner augmented” and the “Serum antibody activity after injection of TNF alone” value ([1]; control, TNF alone) was “did not induce serum antibody activity”.

B1: IFN-γ: IFN-γ (γ-interferon) lymphokine given with or without TNF-α (protein, UniProt P01579 24-161, looked up)
Interferon gamma: QDPYVKEAENLKKYFNAGHSDVADNGTLFLGILKNWKEESDRKIMQSQIVSFYFKLFKNFKDDQSIQKSVETIKEDMNVKFFNSNKKKRDDFEKLTNYSVTDLNVQRKAIHELIQVMAELSPAAKTGKRKRSQMLFRG
B1 was tested, and the “Direct cytotoxic effect on 2237 cells” value (2237 cells) was “Neither TNF-α nor IFN-γ have any significant direct cytotoxic effect”.
